Results taken from patent publication US9062124B2, “GIP-based mixed agonists for treatment of metabolic disorders and obesity” (priority 2008, dated 2015).
Where a SMILES comes first, the peptide text is derived from it. Bridges are numbered along the chain shown (N, C = ends). The star is where a group is joined. Bz = O=C(c1ccccc1)*

Legend:
Type in all cases: cell-based
glucagon receptor = molecular target: T1, glucagon receptor (Homo sapiens, UniProt P47871); assay: cAMP synthesis functional assay (firefly luciferase reporter in HEK293 cells), glucagon receptor; settings: Table 1; for Glucagon Receptor relative activity: relative to the native hormone of the indicated receptor
T1 construct: expressed in transfected cells; host or cells: HEK293

GLP-1 receptor = molecular target: T2, GLP-1 receptor (Homo sapiens, UniProt P43220); assay: cAMP synthesis functional assay (firefly luciferase reporter in HEK293 cells), GLP-1 receptor; settings: Table 1; for GLP-1 Receptor relative activity: relative to the native hormone of the indicated receptor
T2 construct: expressed in transfected cells; host or cells: HEK293

GIP receptor = molecular target: T3, GIP receptor (Homo sapiens, UniProt P48546); assay: cAMP synthesis functional assay (firefly luciferase reporter in HEK293 cells), GIP receptor; settings: Table 1; relative to the native hormone of the indicated receptor
T3 construct: expressed in transfected cells; host or cells: HEK293
T3 sequence (P48546 22-466): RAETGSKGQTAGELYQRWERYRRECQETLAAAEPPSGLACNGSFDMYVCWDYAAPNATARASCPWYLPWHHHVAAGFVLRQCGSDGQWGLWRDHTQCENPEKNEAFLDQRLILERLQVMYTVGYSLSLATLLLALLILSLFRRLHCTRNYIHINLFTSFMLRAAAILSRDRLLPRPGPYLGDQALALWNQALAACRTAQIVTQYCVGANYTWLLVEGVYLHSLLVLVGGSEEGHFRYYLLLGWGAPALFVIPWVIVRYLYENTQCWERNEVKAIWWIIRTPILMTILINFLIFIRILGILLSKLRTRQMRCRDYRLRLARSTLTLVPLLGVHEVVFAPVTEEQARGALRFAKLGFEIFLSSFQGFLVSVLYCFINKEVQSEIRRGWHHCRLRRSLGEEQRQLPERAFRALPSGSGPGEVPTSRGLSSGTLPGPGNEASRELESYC

T2 sequence (P43220 24-463, species assumed): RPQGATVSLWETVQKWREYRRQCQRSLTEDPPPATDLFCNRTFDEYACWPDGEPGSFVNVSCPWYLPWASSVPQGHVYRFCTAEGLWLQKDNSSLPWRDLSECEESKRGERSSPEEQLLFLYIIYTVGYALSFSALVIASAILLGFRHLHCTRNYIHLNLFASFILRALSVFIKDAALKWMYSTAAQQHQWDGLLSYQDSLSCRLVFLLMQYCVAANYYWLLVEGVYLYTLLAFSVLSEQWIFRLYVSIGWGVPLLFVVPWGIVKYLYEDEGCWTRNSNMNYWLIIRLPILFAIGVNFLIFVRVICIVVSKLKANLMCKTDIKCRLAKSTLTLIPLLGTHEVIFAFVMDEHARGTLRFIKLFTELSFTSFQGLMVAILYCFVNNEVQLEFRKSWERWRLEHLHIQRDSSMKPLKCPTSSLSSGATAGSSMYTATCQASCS
T1 sequence (P47871 26-477): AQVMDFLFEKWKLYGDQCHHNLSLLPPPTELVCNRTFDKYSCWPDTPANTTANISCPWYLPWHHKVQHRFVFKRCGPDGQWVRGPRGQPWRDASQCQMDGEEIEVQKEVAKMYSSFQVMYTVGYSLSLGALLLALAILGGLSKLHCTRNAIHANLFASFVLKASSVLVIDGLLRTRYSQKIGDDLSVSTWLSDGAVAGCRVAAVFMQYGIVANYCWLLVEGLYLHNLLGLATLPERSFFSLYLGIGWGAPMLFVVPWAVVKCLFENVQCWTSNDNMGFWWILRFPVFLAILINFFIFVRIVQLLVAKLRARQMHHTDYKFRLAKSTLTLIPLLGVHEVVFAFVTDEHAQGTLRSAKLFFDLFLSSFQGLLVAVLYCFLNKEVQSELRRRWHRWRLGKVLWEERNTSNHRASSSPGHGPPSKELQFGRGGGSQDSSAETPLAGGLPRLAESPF

Compound | Glucagon Receptor relative activity (glucagon receptor) | GLP-1 Receptor relative activity (GLP-1 receptor) | GIP Receptor relative activity (GIP receptor) | EC50 (glucagon receptor; Glucagon Receptor EC50, nM) | EC50 (GLP-1 receptor; GLP-1 Receptor EC50, nM)
CC[C@H](C)[C@H](NC(=O)[C@H](CO)NC(=O)[C@H](Cc1ccc(O)cc1)NC(=O)[C@H](CC(=O)O)NC(=O)[C@H](CO)NC(=O)[C@@H](NC(=O)[C@H](Cc1ccccc1)NC(=O)[C@@H](NC(=O)CNC(=O)[C@H](CCC(N)=O)NC(=O)[C@H](CO)NC(=O)CNC(=O)c1ccccc1)[C@@H](C)O)[C@@H](C)O)C(=O)N[C@@H](Cc1ccc(O)cc1)C(=O)N[C@@H](CC(C)C)C(=O)N[C@@H](CC(=O)O)C(=O)N[C@H]1CCC(=O)NCCCC[C@@H](C(=O)N[C@@H](CCC(=O)O)C(=O)N[C@@H](Cc2ccccc2)C(=O)N[C@H](C(=O)N[C@@H](CC(N)=O)C(=O)N[C@@H](Cc2c[nH]c3ccccc23)C(=O)N[C@@H](CC(C)C)C(=O)N[C@@H](CC(C)C)C(=O)N[C@@H](C)C(=O)NCC(=O)NCC(=O)N2CCC[C@H]2C(=O)N[C@@H](CO)C(=O)N[C@@H](CO)C(=O)NCC(=O)N[C@@H](C)C(=O)N2CCC[C@H]2C(=O)N2CCC[C@H]2C(=O)N2CCC[C@H]2C(=O)N[C@@H](CO)C(N)=O)C(C)C)NC(=O)[C@H](C)NC(=O)[C@H](C)NC(=O)[C@H](CCC(N)=O)NC1=O [mt-154] (Bz-GSQGTFTSDYSIYLDEQAAKEFVNWLLAGGPSSGAPPPS-NH2; lactam 16-20) | 7.40% | 0.70% | 1.07% | – | –
CC(C)C[C@H](NC(=O)[C@H](CC(C)C)NC(=O)[C@H](Cc1c[nH]c2ccccc12)NC(=O)[C@H](CC(N)=O)NC(=O)[C@@H](NC(=O)[C@H](Cc1ccccc1)NC(=O)[C@H](CCC(=O)O)NC(=O)[C@H](CCCCN)NC(=O)[C@H](C)NC(=O)[C@H](C)NC(=O)[C@H](CCC(N)=O)NC(=O)[C@@H]1CCC(=O)NCCCC[C@H](NC(=O)[C@H](CO)NC(=O)[C@H](Cc2ccc(O)cc2)NC(=O)[C@H](CC(=O)O)NC(=O)[C@H](CO)NC(=O)[C@@H](NC(=O)[C@H](Cc2ccccc2)NC(=O)[C@@H](NC(=O)CNC(=O)[C@H](CCC(N)=O)NC(=O)[C@H](CO)NC(=O)[C@@H](N)Cc2ccc(O)cc2)[C@@H](C)O)[C@@H](C)O)C(=O)N[C@@H](Cc2ccc(O)cc2)C(=O)N[C@@H](CC(C)C)C(=O)N[C@@H](CC(=O)O)C(=O)N1)C(C)C)C(=O)N[C@@H](C)C(=O)NCC(=O)NCC(=O)N1CCC[C@H]1C(=O)N[C@@H](CO)C(=O)N[C@@H](CO)C(=O)NCC(=O)N[C@@H](C)C(=O)N1CCC[C@H]1C(=O)N1CCC[C@H]1C(=O)N1CCC[C@H]1C(=O)N[C@@H](CO)C(N)=O [mt-155] (H-YSQGTFTSDYSKYLDEQAAKEFVNWLLAGGPSSGAPPPS-NH2; lactam 12-16; N-terminus assumed) | 10.93% | 98.99% | 7.02% | 1.28 nM | –
CC[C@H](C)[C@H](NC(=O)[C@H](CO)NC(=O)[C@H](Cc1ccc(O)cc1)NC(=O)[C@H](CC(=O)O)NC(=O)[C@H](CO)NC(=O)[C@@H](NC(=O)[C@H](Cc1ccccc1)NC(=O)[C@@H](NC(=O)CNC(=O)[C@H](CCC(N)=O)NC(=O)[C@H](CO)NC(=O)[C@@H](N)Cc1ccc(O)cc1)[C@@H](C)O)[C@@H](C)O)C(=O)N[C@@H](Cc1ccc(O)cc1)C(=O)N[C@@H](CC(C)C)C(=O)N[C@@H](CC(=O)O)C(=O)N[C@@H](CCC(=O)O)C(=O)N[C@@H](CCC(N)=O)C(=O)N[C@@H](C)C(=O)N[C@@H](C)C(=O)N[C@H]1CCCCNC(=O)CC[C@@H](C(=O)N[C@@H](Cc2c[nH]c3ccccc23)C(=O)N[C@@H](CC(C)C)C(=O)N[C@@H](CC(C)C)C(=O)N[C@@H](C)C(=O)NCC(=O)NCC(=O)N2CCC[C@H]2C(=O)N[C@@H](CO)C(=O)N[C@@H](CO)C(=O)NCC(=O)N[C@@H](C)C(=O)N2CCC[C@H]2C(=O)N2CCC[C@H]2C(=O)N2CCC[C@H]2C(=O)N[C@@H](CO)C(N)=O)NC(=O)[C@H](C(C)C)NC(=O)[C@H](Cc2ccccc2)NC(=O)[C@H](CCC(=O)O)NC1=O [mt-156] (H-YSQGTFTSDYSIYLDEQAAKEFVEWLLAGGPSSGAPPPS-NH2; lactam 20-24; N-terminus assumed) | 6.10% | 12.20% | 4.41% | – | –
CC[C@H](C)[C@H](NC(=O)[C@H](CO)NC(=O)[C@H](Cc1ccc(O)cc1)NC(=O)[C@H](CC(=O)O)NC(=O)[C@H](CO)NC(=O)[C@@H](NC(=O)[C@H](Cc1ccccc1)NC(=O)[C@@H](NC(=O)CNC(=O)[C@H](CCC(N)=O)NC(=O)[C@H](CO)NC(=O)[C@@H](N)Cc1ccc(O)cc1)[C@@H](C)O)[C@@H](C)O)C(=O)N[C@@H](Cc1ccc(O)cc1)C(=O)N[C@@H](CC(C)C)C(=O)N[C@@H](CC(=O)O)C(=O)N[C@@H](CCC(=O)O)C(=O)N[C@@H](CCC(N)=O)C(=O)N[C@@H](C)C(=O)N[C@@H](C)C(=O)N[C@@H](CCCCN)C(=O)N[C@@H](CCC(=O)O)C(=O)N[C@@H](Cc1ccccc1)C(=O)N[C@H](C(=O)N[C@H]1CCC(=O)NCCCC[C@@H](C(=O)NCC(=O)NCC(=O)N2CCC[C@H]2C(=O)N[C@@H](CO)C(=O)N[C@@H](CO)C(=O)NCC(=O)N[C@@H](C)C(=O)N2CCC[C@H]2C(=O)N2CCC[C@H]2C(=O)N2CCC[C@H]2C(=O)N[C@@H](CO)C(N)=O)NC(=O)[C@H](CC(C)C)NC(=O)[C@H](CC(C)C)NC(=O)[C@H](Cc2c[nH]c3ccccc23)NC1=O)C(C)C [mt-157] (H-YSQGTFTSDYSIYLDEQAAKEFVEWLLKGGPSSGAPPPS-NH2; lactam 24-28; N-terminus assumed) | 6.92% | 37.04% | 4.00% | – | –
CC[C@H](C)[C@H](NC(=O)[C@H](CO)NC(=O)[C@H](Cc1ccc(O)cc1)NC(=O)[C@H](CC(=O)O)NC(=O)[C@H](CO)NC(=O)[C@@H](NC(=O)[C@H](Cc1ccccc1)NC(=O)[C@@H](NC(=O)CNC(=O)[C@H](CCC(N)=O)NC(=O)[C@H](CO)NC(=O)[C@@H](N)Cc1ccc(O)cc1)[C@@H](C)O)[C@@H](C)O)C(=O)N[C@@H](Cc1ccc(O)cc1)C(=O)N[C@@H](CC(C)C)C(=O)N[C@@H](CC(=O)O)C(=O)N[C@H]1CCC(=O)NCCCC[C@@H](C(=O)N[C@@H](CCC(=O)O)C(=O)N[C@@H](Cc2ccccc2)C(=O)N[C@H](C(=O)N[C@@H](CC(N)=O)C(=O)N[C@@H](Cc2c[nH]c3ccccc23)C(=O)N[C@@H](CC(C)C)C(=O)N[C@@H](CC(C)C)C(=O)N[C@@H](C)C(=O)NCC(N)=O)C(C)C)NC(=O)[C@H](C)NC(=O)[C@H](C)NC(=O)[C@H](CCC(N)=O)NC1=O [mt-163] (H-YSQGTFTSDYSIYLDEQAAKEFVNWLLAG-NH2; lactam 16-20; N-terminus assumed) | 251.85% | 30.00% | 4.73% | – | 0.04 nM
